According to patent US20020169126A1, “Compositions and methods for inactivating the Akt oncogene and/or activating the p38 pro-apoptotic gene” (priority 2001, published 2002):
Structures can show the parent of a compound that is named as a salt. Starred links: 1 amine or outer side, 2 acyl side, 3 side chain; linkers in the order of their positions; H or OH if unused. Positions of bridges follow the written chain, without caps; N, C: chain ends. Non-standard residues stand in square brackets, D forms with d. Residues, ends and D or L forms follow the SMILES beside them. Chains are numbered I, II in the order given. Actinocin(9to1) = Cc1c2oc3c(C)ccc(C(=O)[*:1])c3nc-2c(C(=O)[*:2])c(N)c1=O; NMeV = CN[C@H](C(=O)O)C(C)C; Sar = CNCC(=O)O

What was measured:
p38 = experiment: Relative p38 activity (p38-p versus p38-c) after blocking Akt; format: cell-based, human; settings: 0.1 μM, 4 hours
Procedure: (§1) In order to determine the relationships between the Akt pathway and the p38 pathway, experiments were performed with inhibitors of both pathways. Wortmannin was used to inhibit the Akt pathway. Wortmannin is a drug that inhibits P13K which is a signal protein that is directly upstream of Akt in the Akt pathway. A synthetic compound, SB203580, was used as a p38 specific inhibitor. Cells were serum starved overnight and were then treated with either SB203580 (20 μM) or Wortmannin (0.1 μM) for 4 hours, 8, hours, 16 hours, 24 hours, 36 hours. When p38 activity was blocked by SB203580 for 8 hours, the Akt activity was increased by approximately 3 fold in E1A stable expressing MDA-MB-231 cells. Whereas, when Akt activity was blocked by Wortmannin for 4 hours, the p38 activity was enhanced to approximately 6 fold. The relative p38 activity (p38-p versus p38-c) and relative Akt activity (Akt-p versus Akt-c) are illustrated in FIG. 2A and FIG. 2B respectively.

[1] = cited from earlier work; for absorption: oral; for dose excreted or recovered in the urine: unchanged, intact or active drug
MDA-MB-231 cells = experiment: Taxol treatment of 231 vector and 231-E1A tumors in nude mice; format: in vivo
Source text: To establish orthotopic breast cancer model in nude mice, human MDA-MB-231 cells were inoculated into the mammary fat pad (m.f.p.) of mouse. Tumor size were monitored and caculated on a weekly basis.
Expression of E1A enhanced the anti-tumor effect of the chemotherapeutic drug Taxol in nude mice in vivo and prolonged animal survival rate. […] TUNEL labeling of apoptotic cells in the tumor tissues with or without treatment of Taxol also confirms this. The treatment groups included the SN vehicle, SN-liposome-E1A, Taxol alone, and Taxol plus SN-E1A. At least 7 animals were included in each group.

[2] = oral and parental routes; cited from earlier work
Akt = experiment: Relative Akt activity (Akt-p versus Akt-c) after blocking p38; format: cell-based, human; settings: 20 μM, 8 hours, E1A stable expressing MDA-MB-231 cells
Procedure: as §1

breast cancer cells = experiment: Sensitization to Taxol-mediated cytotoxicity; format: cell-based, human; settings: blocking p38 activity, together with constitutively active Akt
Procedure: The indirect measure of the viable cells after exposure to Taxol using the metabolic conversion of tetrazolium salt (MTT) to formazan was used. Cells (3×10^3/well) were seeded in triplicate in 96-well culture plates in 0.2 ml of culture medium and allowed to adhere for 24 h. After exposure to Taxol for a certain period of time, 20 μl of MTT was then added to each well. Cells were cultured for an additional 2 h, and followed by addition of 100 μl of extraction buffer (20% SDS in 50% N,N-dimethyl formamide, pH 4.7). The cells were incubated overnight at 37° C., and the plates were absorbance at 570 nm was measured.

Compound: COC[C@H]1OC(=O)c2coc3c2[C@@]1(C)C1=C(C3=O)[C@@H]2CCC(=O)[C@@]2(C)C[C@H]1OC(C)=O [Wortmannin]
- enhancement of p38 activity (p38): approximately 6 fold

Compound: N.N.[Cl][Pt][Cl] [Cisplatin]
- absorption [1]: not absorbed orally

Compound: CC(=O)O[C@H]1C(=O)[C@@]2(C)[C@H]([C@H](OC(=O)c3ccccc3)[C@]3(O)C[C@H](OC(=O)[C@H](O)[C@@H](NC(=O)c4ccccc4)c4ccccc4)C(C)=C1C3(C)C)[C@]1(OC(C)=O)CO[C@@H]1C[C@@H]2O [Taxol]
- therapeutic effect of Taxol in E1A tumors versus vector tumors (MDA-MB-231 cells; 231-E1A cells): more dramatic therapeutic effect
- tumor growth under Taxol treatment (MDA-MB-231 cells; 231 vector and 231-E1A tumors): repressed tumor growth

Compound: O=C(O)CCCc1ccc(N(CCCl)CCCl)cc1 [Chlorambucil, 4-[bis(2-chlorethyl)amino] benzenebutanoic acid]
- absorption [1]: rapidly and completely absorbed from the gastrointestinal tract

Compound: COc1cccc2c1C(=O)c1c(O)c3c(c(O)c1C2=O)C[C@@](O)(C(C)=O)C[C@@H]3O[C@H]1C[C@H](N)[C@H](O)[C@H](C)O1 [Daunorubicin, 5,12-Naphthacenedione, (8S-cis)-8-acetyl-10-[(3-amino-2,3,6-trideoxy-a-L-lyxo-hexanopyranosyl)oxy]-7,8,9,10-tetrahydro-6,8,11-trihydroxy-10-methoxy-, hydrochloride]
- absorption [1]: poor

Compound: O=P1(N(CCCl)CCCl)NCCCO1 (stereo not shown) [Cyclophosphamide, 2H -1,3,2-Oxazaphosphorin-2-amine, N,N-bis(2-chloroethyl)tetrahydro-, 2-oxide, monohydrate]
- local tolerance [2]: does not cause local vesication, necrosis, phlebitis or even pain

Compound: Cc1c2oc3c(C)ccc(C(=O)N[C@@H]4C(=O)N[C@H](C(C)C)C(=O)N5CCC[C@H]5C(=O)N(C)CC(=O)N(C)[C@@H](C(C)C)C(=O)O[C@@H]4C)c3nc-2c(C(=O)N[C@@H]2C(=O)N[C@H](C(C)C)C(=O)N3CCC[C@H]3C(=O)N(C)CC(=O)N(C)[C@@H](C(C)C)C(=O)O[C@@H]2C)c(N)c1=O [Actinomycin D] (I: T[dV]P[Sar][NMeV] / II: T[dV]P[Sar][NMeV]; ester I:1-I:C, II:1-II:C; linker I:N-II:N via Actinocin(9to1))
- excreted intact into the bile ([1]; in vivo): Half of the dose
- dose excreted or recovered in the urine [1]: 10%

Compound: CC[C@]1(O)C[C@H]2CN(CCc3c([nH]c4ccccc34)[C@@](C(=O)OC)(c3cc4c(cc3OC)N(C=O)[C@H]3[C@@](O)(C(=O)OC)[C@H](OC(C)=O)[C@]5(CC)C=CCN6CC[C@]43[C@@H]65)C2)C1 [Vincristine]
- absorption [1]: Unpredictable absorption

Compound: CO[C@@]12[C@H](COC(N)=O)C3=C(C(=O)C(C)=C(N)C3=O)N1C[C@@H]1N[C@@H]12 [Mitomycin]
- dose excreted or recovered in the urine [1]: Approximately 10%

Compound: CC[C@]1(O)C[C@@H]2CN(CCc3c([nH]c4ccccc34)[C@@](C(=O)OC)(c3cc4c(cc3OC)N(C)[C@H]3[C@@](O)(C(=O)OC)[C@H](OC(C)=O)[C@]5(CC)C=CCN6CC[C@]43[C@@H]65)C2)C1 [Vinblastine]
- absorption [1]: Unpredictable absorption
- dose excreted or recovered in the urine [1]: Approximately 15%

Compound: C[S+]([O-])c1ccc(-c2nc(-c3ccncc3)c(-c3ccc(F)cc3)[nH]2)cc1 (stereo not shown) [SB203580]
- increase of Akt activity (Akt): approximately 3 fold
- effect on the ability of E1A to sensitize cells to Taxol-mediated cytotoxicity (breast cancer cells): partially abrogated

Compound: COc1cccc2c1C(=O)c1c(O)c3c(c(O)c1C2=O)C[C@@](O)(C(=O)CO)C[C@@H]3O[C@H]1C[C@H](N)[C@H](O)[C@H](C)O1 [Doxorubicin, 5,12-Naphthacenedione, (8s-cis)-10-[(3-amino-2,3,6-trideoxy-a-L-lyxo-hexopyranosyl)oxy]-7,8,9,10-tetrahydro-6,8,11-trihydroxy-8-(hydroxyacetyl)-1-methoxy-hydrochloride]
- absorption [1]: absorbed poorly
